“Also recorded” adds a separate entry of the source.
Experiments:
[1] = test system: P245Q mutation in PDZ1 of DLG1; conditions: cited from earlier work
Text: This residue difference might account for the higher affinity between PDZ2 and APC.

[2] = test system: PDZ1 and PDZ2 domains of PSD-95; conditions: cited from earlier work
Text: The 3D structures of the three PDZ domains of DLG1 have been determined in the free forms [13]–[15]. They share very similar structures, and the ligand binding pockets are also conserved. […] The residues in the β2/β3 loop ...

[3] = target: T1, PDZ1 domain of DLG1 (residues 220–310) (Homo sapiens, UniProt Q12959); test: GST pull-down assay, PDZ1; format: binding; conditions: GST-APC peptide immobilized, 4°C, 25 mM Tris-HCl pH 8.0, 150 mM NaCl, 2 mM DTT, SDS-PAGE, Coomassie Blue
T1 construct: The cDNAs encoding PDZ1 (residues 220–310); His tag (N); made in house; host or cells: E. coli BL21 (DE3)
Text: (§1) The cDNAs encoding PDZ1 (residues 220–310), PDZ2 (residues 315–410), PDZ3 (462–552), and PDZ1-PDZ2 (residues 220–410) domains of human DLG1 were cloned into pET28a (Novagen)-derived vectors and over-expressed as N-terminal His-tagged proteins. The C-terminal 11 residues of human APC (residues 2833–2843, APC-C11, with sequence […]), the C-terminal 4 residues of human APC (residues 2840–2843, APC-C4, sequence VTSV), and residues 2833–2842 of APC (APC-C10, sequence […]) were cloned into the pGEX4T1 (GE Healthcare) vector to be expressed as N-terminal GST-tagged recombinant proteins.
(§2) All proteins except PDZ1-PDZ2 were over-expressed in E. coli strain BL21 (DE3), and PDZ1-PDZ2 was over-expressed in E. coli strain BL21 (RIL). Cells were cultured at 37°C in LB medium and incubated for 20 hours at 18°C with 0.5 mM isopropyl β-D-1-thiogalactopyranoside (IPTG) on reaching OD600 = 0.6. Cells were harvested by centrifugation and resuspended in the binding buffer (Ni^2+-NTA column binding buffer: 25 mM Tris-HCl, pH 8.0, 300 mM NaCl, and 20 mM imidazole; GST column binding buffer: 25 mM Tris-HCl, pH 8.0, 150 mM NaCl, and 2 mM DTT). The cells were lysed by sonication, followed by centrifugation. Supernatants of the cells lysates were purified by Ni^2+-NTA affinity chromatography (Qiagen) or GST affinity chromatography (GE Healthcare). PDZ1, PDZ2, PDZ3, and PDZ1-PDZ2 proteins were then purified by Superdex 200 gel filtration chromatography equilibrated with a buffer containing 20 mM Tris-HCl, pH 8.0, 100 mM NaCl, and 2 mM DTT.
(§3) GST pull-down assays between wild-type (WT) or mutant APC peptides and WT or mutant PDZ domain proteins were performed according to standard procedures. […] The bound proteins were eluted with the GST column elution buffer (50 mM Tris-HCl, pH 8.0, 150 mM NaCl, and 7 mM glutathione), and then analyzed by SDS-PAGE and Coomassie Blue staining.

[4] = target: T2, PDZ2 domain of DLG1 (residues 315–410) (Homo sapiens, UniProt Q12959); test: GST pull-down assay, PDZ2; format: binding; conditions: for binding in GST pull-down (in words): PDZ2 (WT), GST-APC peptide immobilized, 4°C, 25 mM Tris-HCl pH 8.0, 150 mM NaCl, 2 mM DTT, SDS-PAGE, Coomassie Blue
T2 construct: PDZ2 (residues 315–410); His tag (N); made in house; host or cells: E. coli BL21 (DE3)
Text: as §1, §2, §3

[5] = target: T1, PDZ1 domain of DLG1 (residues 220–310); test: ITC, PDZ1 titrated into GST-tagged APC peptides; format: binding; conditions: 25°C, 50 mM HEPES pH 7.5, 100 mM NaCl
Text: as §1, §2
(§4) Isothermal titration calorimetry (ITC) experiments were performed using an ITC200 system (GE Healthcare) at 25°C. The buffer contained 50 mM HEPES, pH 7.5, and 100 mM NaCl. Proteins were centrifuged and degassed before the experiment. Typically, a WT or mutant DLG1 PDZ domain protein (400 µM) was injected 20 times in 2 µl aliquots into a 300 µl sample cell containing GST-tagged APC-C11 or APC-C4 protein (40 µM). Data were fit with a nonlinear least-square routine using a single site binding model with Origin for ITC version 7.0 (MicroCal), varying the stoichiometry (n), the enthalpy of the reaction (ΔH), and the association constant (K a).

[6] = target: T2, PDZ2 domain of DLG1 (residues 315–410); test: ITC, PDZ2 titrated into GST-tagged APC peptides; format: binding; conditions: 25°C, 50 mM HEPES pH 7.5, 100 mM NaCl
Text: as §1, §2, §4

PDZ3 domain of DLG1 = target: T3, PDZ3 domain of DLG1 (Homo sapiens, UniProt Q12959); test: ITC, PDZ3 titrated into GST-APC-C11; format: binding; conditions: 25°C, 50 mM HEPES pH 7.5, 100 mM NaCl
T3 construct: PDZ3 (462–552); His tag (N); made in house; host or cells: E. coli BL21 (DE3)
Text: as §1
as §2, with “PDZ1, PDZ2, PDZ3, and PDZ1-PDZ2 proteins were then purified by Superdex 200 gel filtration chromatography equilibrated with a buffer containing 20 mM Tris-HCl, pH 8.0, 100 mM NaCl, and 2 mM DTT.” left out

PDZ2 Δ339–346 (DLG1) [7] = target: T4, PDZ2 Δ339–346 (DLG1) (Homo sapiens, UniProt Q12959, DEL339-346); test: ITC, PDZ2 Δ339–346 titrated into GST-APC-C11; format: binding; conditions: 25°C, 50 mM HEPES pH 7.5, 100 mM NaCl
T4 construct: PDZ2 (residues 315–410); His tag (N); made in house; host or cells: E. coli BL21 (DE3)
T4 sequence (Q12959 with tags, fused parts or gaps DEL339-346): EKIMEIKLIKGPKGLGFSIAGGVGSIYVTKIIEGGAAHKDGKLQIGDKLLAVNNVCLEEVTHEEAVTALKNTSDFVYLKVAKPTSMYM
Text: (§5) The 3D structures of the three PDZ domains of DLG1 have been determined in the free forms [13]–[15]. They share very similar structures, and the ligand binding pockets are also conserved. […] The residues in the β2/β3 loops of PDZ domains in other proteins have also been implicated in determining their target ligand binding affinities, [18]. In order to know whether the β2/β3 loop also plays an important role in the interaction between APC and DLG1, we created a similar mutant of PDZ2 deleting residues 339–346.
as §1
Isothermal titration calorimetry (ITC) experiments were performed using an ITC200 system (GE Healthcare) at 25°C. The buffer contained 50 mM HEPES, pH 7.5, and 100 mM NaCl. Proteins were centrifuged and degassed before the experiment. […]

PDZ2 Q340P (DLG1) [8] = target: T5, PDZ2 Q340P (DLG1) (Homo sapiens, UniProt Q12959, Q340P); test: ITC, PDZ2 Q340P titrated into GST-APC-C11; format: binding; conditions: 25°C, 50 mM HEPES pH 7.5, 100 mM NaCl
T5 construct: PDZ2 (residues 315–410); His tag (N); made in house; host or cells: E. coli BL21 (DE3)
T5 sequence (Q12959 315-410 Q340P): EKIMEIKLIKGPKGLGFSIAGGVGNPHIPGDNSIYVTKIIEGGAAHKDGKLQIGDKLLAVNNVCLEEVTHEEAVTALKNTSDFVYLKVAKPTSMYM
Text: as §1, §4

[9] = test system: PDZ1-PDZ2 of DLG1 (residues 220–410); test: GST pull-down assay, PDZ1-PDZ2; format: binding, human; conditions: GST-APC peptide immobilized, 4°C, 25 mM Tris-HCl pH 8.0, 150 mM NaCl, 2 mM DTT, SDS-PAGE, Coomassie Blue
Text: as §1
All proteins except PDZ1-PDZ2 were over-expressed in E. coli strain BL21 (DE3), and PDZ1-PDZ2 was over-expressed in E. coli strain BL21 (RIL). Cells were cultured at 37°C in LB medium and incubated for 20 hours at 18°C with 0.5 mM isopropyl β-D-1-thiogalactopyranoside (IPTG) on reaching OD600 = 0.6. […]
as §3

PDZ2 Δ339–346 (DLG1) [10] = target: T4, PDZ2 Δ339–346 (DLG1); test: GST pull-down assay, PDZ2 Δ339–346; format: binding; conditions: PDZ2 Δ339–346 vs WT PDZ2; GST-APC-C11 immobilized, 4°C; 25 mM Tris-HCl pH 8.0, 150 mM NaCl, 2 mM DTT
Text: as §5, §1
GST pull-down assays between wild-type (WT) or mutant APC peptides and WT or mutant PDZ domain proteins were performed according to standard procedures. […]

PDZ2 Q340P (DLG1) [11] = target: T5, PDZ2 Q340P (DLG1); test: GST pull-down assay, PDZ2 Q340P; format: binding; conditions: PDZ2 Q340P vs WT PDZ2; GST-APC-C11 immobilized, 4°C; 25 mM Tris-HCl pH 8.0, 150 mM NaCl, 2 mM DTT
Text: as §1, §3

T2 sequence (Q12959 315-410): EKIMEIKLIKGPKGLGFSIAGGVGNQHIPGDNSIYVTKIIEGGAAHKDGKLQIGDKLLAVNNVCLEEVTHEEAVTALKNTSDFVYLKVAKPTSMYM
T1 sequence (Q12959 220-310): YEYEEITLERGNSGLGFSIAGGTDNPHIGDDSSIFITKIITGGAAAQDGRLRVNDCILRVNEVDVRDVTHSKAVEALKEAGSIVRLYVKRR
T3 sequence (Q12959 462-552): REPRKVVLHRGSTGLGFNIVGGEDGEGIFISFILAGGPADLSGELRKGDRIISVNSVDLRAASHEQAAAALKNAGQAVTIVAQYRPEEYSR

NR2B: NR2B subunit of NMDA receptors
fold increase in binding affinity for NR2B [1]: 2 fold
change of binding affinity on deletion of six residues from the β2/β3 loops (in words) [2]: decreases the binding affinity

RHSGSYLVTS [APC-C10]
binding in GST pull-down (in words) [3]: no interaction could be observed
binding in GST pull-down (in words) [4]: no interaction could be observed

RHSGSYLVTSV [APC-C11]
DLG/APC ratio ([5]; 400 µM PDZ1 into 40 µM GST-tagged APC peptide, single site binding model): 0.918±0.127
TΔS ([5]; PDZ1 into GST-tagged APC peptide): 2.44 kcal/mol
ΔH ([5]; PDZ1 into GST-tagged APC peptide, negative = exothermic): -4.02 ± 0.82 kcal/mol
DLG/APC ratio ([6]; 400 µM PDZ2 into 40 µM GST-tagged APC peptide, single site binding model): 0.916±0.018
TΔS ([6]; PDZ2 into GST-tagged APC peptide): 1.07 kcal/mol
ΔH ([6]; PDZ2 into GST-tagged APC peptide, negative = exothermic): -7.09 ± 0.19 kcal/mol
interaction / heat of reaction by ITC (in words) (PDZ3 domain of DLG1): no detectable interaction was observed
interaction / heat of reaction by ITC (in words) (PDZ2 Δ339–346 (DLG1) [7]): no detectable heat of reaction
interaction / heat of reaction by ITC (in words) (PDZ2 Δ339–346 (DLG1) [7]; listed as GST-APC-C11): no detectable interaction was observed
DLG/APC ratio (PDZ2 Q340P (DLG1) [8]; 400 µM PDZ2 Q340P into 40 µM GST-APC-C11, single site binding model): 1.04±0.03
TΔS (PDZ2 Q340P (DLG1) [8]; PDZ2 Q340P into GST-APC-C11): 0.0793 kcal/mol
ΔH (PDZ2 Q340P (DLG1) [8]; PDZ2 Q340P into GST-APC-C11, negative = exothermic): -6.76 ± 0.27 kcal/mol
binding in GST pull-down (in words) [3]: somewhat weaker, but detectable binding
binding in GST pull-down (in words) [4]: stronger than that between PDZ1 and APC-C11
binding in GST pull-down (in words) ([4]; listed as GST-APC-C11): bound most strongly
binding in GST pull-down in crystallization-like buffer (in words) ([4]; PDZ2, buffer similar to the condition in which PDZ2/APC-C11 crystallized, data not shown): weaker than that between PDZ1 and APC-C11
binding in GST pull-down (in words) [9]: bound most strongly
binding in GST pull-down (in words) (PDZ2 Δ339–346 (DLG1) [10]): significantly decreases the interaction; also recorded: dramatically decreased the interaction
binding in GST pull-down (in words) (PDZ2 Q340P (DLG1) [11]): greatly diminished the association; also recorded: substantially weaker interaction

VTSV [APC-C4]
interaction / heat of reaction by ITC (in words) ([5]; PDZ1, listed as GST-APC-C4): no detectable heat of reaction; also recorded: no detectable interaction was observed
interaction / heat of reaction by ITC (in words) ([6]; PDZ2, listed as GST-APC-C4): no detectable heat of reaction; also recorded: no detectable interaction was observed
binding in GST pull-down (in words) [3]: significantly weaker compared to GST-APC-C11
binding in GST pull-down (in words) [4]: significantly weaker compared to GST-APC-C11
binding in GST pull-down (in words) [9]: significantly weaker compared to GST-APC-C11

From PMC3157396, “Molecular Basis for the Recognition of Adenomatous Polyposis Coli by the Discs Large 1 Protein” (PLoS ONE, 2011)
